Our source for the remaining activity and IC50 values is US11912710B2 (UPPTHERA, INC., priority 2021, dated 2024).

Holding throughout (format): cell-based
One experiment concerns the target T1, PLK1 (Homo sapiens, UniProt P53350).
T1 construct: endogenous in cells; host or cells: HeLa LgBit (Plk1-HiBit KI): HeLa cells stably expressing LgBit, with HiBit knocked into the endogenous Plk1 locus by CRISPR/Cas9
Briefly: Luciferase assay for PLK1 in HeLa LgBit (Plk1-HiBit KI) cell line. To be noted: 300 nM compound, luminescence after 9 hours, read-out: Activity: ratio of the luminescense value of compound treatment group to DMSO treatment group. The method, then: 2. Luciferase Assay for PLK1
(1) Preparation and Culture of HeLa LgBit (Plk1-HiBit KI) Cell Line
A HeLa cell line in which the LgBit vector was transfected and expressed stably was prepared. Then, after constructing gRNA and donor to express the HiBit amino acid sequence behind the C-terminal of the Plk1 gene, which was inherent in the cell, it was inserted into the cell together with a vector capable of expressing CRISPR/Cas9. Only the cells in which the insertion was completed and knock-in had progressed were selected, sub-cultured and used.
(2) Treatment of Compounds of the Present Invention and Method of Luciferase Assay
In the case of HeLa LgBit (Plk1-HiBit KI), the compounds were treated after being released after thymidine block, and the process was as follows. Thymidine (Sigma-Aldrich Cat. No. T9250-5G) was completely dissolved in DW and used in the experiment. For thymidine block, the products were treated with 2 mM of thymidine and then incubated for 24 hours. For release and chemical treatment, the medium was suctioned and washed with 1×PBS. TrypLE™ was added and incubated in 37° C. CO2 incubator for 5 min. Cells neutralized by adding complete media were counted through a counter. For each well of a 96-well culture plate (SPL), 3.3×10^4 cells and a total medium volume of 150 μL were seeded and incubated in a CO2 incubator.
Each cell line was incubated in a CO2 incubator for 18 hours, and Endurazine was added to each well to make up 4% of the total volume. After adding the compound of the present invention in a 96-well white plate (SPL) to a concentration of 300 nM, the wavelength of the plate reader (BMG Labtech, CLARIOstar Plus) was set to […], and then the luminescence was tracked in real time.
In Table 2, Activity represents the ratio of the luminescense value of each Exemplary Compound treatment group to DMSO treatment group (+++: <0.3, ++<0.6, +<0.7).
(In general: HiBiT is a short tag that completes a luciferase, so light tracks the accessible tagged protein.)

The test system of the next experiment is NCI-H526 cell line. Kind of experiment: Cell viability assay for H526 cell line. The following applies: Homo sapiens, NCI-H526, 120 h; H526 cells, 5 days, EZ-Cytox, 3000 nM to 0.46 nM. The method, then:
3. Cell Viability Assay for H526 Cell Line
(1) Culture of NCI-H526 Cell Line
(2) Treatment of Compounds of the Present Invention and Method of Cell Viability Assay
After treating the compound to each well to make the total volume of 200 μL, it was cultured in a CO2 incubator (Thermo Fisher Science, Cat. No. 4111) for 5 days.
The absorbance of the completely cultured sample was measured by setting the wavelength of a plate reader (BMG Labtech, CLARIOstar Plus) to […], and was measured after shaking for 3 minutes in a plate reader before measurement.
In Table 3, Activity represents IC50 value of each Exemplary Compound treatment group to H526 cell line (A: <30 nM, B: <50 nM, C: <100 nM, D: <200 nM, E: <400 nM).

A further experiment deals with MRC-5 cell line. Kind of experiment: Cell viability assay (cytotoxicity) for MRC-5 cell line. To be noted: Homo sapiens, MRC5, 120 h; MRC-5 normal cell line, 5 days, EZ-Cytox, 10000 nM to 1.52 nM; read-out: Activity: IC50 value to MRC-5 cell line (Exemplary Compounds). As to the method: 4. Cell Viability Assay for MRC-5 Cell Line
(1) Culture of MRC-5 Cell Line
Passage of cultured cells was maintained within P15.
(2) Treatment of Compounds of the Present Invention
Then, it was cultured in 37° C.
(3) Cytotoxicity Experiment
CO2 incubator for 4 hours.
Cell Viability Assay for MRC-5 cell line

Some results are limits rather than exact numbers.

T1 sequence (P53350 whole entry): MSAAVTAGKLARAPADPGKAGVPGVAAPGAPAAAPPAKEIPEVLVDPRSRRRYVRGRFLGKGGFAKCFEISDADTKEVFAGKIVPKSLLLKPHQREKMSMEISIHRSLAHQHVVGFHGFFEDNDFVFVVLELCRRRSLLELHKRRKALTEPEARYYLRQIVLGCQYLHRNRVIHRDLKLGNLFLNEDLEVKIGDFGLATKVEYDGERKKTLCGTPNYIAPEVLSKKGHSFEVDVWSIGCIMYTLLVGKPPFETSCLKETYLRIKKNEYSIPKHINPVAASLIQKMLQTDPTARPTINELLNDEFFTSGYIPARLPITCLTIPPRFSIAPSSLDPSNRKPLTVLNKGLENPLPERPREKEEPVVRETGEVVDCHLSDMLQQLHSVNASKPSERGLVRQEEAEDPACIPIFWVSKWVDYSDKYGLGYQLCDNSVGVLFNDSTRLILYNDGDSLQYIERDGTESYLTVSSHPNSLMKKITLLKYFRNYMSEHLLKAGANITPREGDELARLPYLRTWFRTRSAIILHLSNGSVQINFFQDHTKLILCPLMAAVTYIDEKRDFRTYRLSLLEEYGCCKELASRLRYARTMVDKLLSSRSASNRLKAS

With `COc1cc(C(=O)NC2CCN(C(=O)CCN3CCN(c4ccc(N5CCC(=O)NC5=O)cc4)CC3)CC2)ccc1Nc1ncc2c(n1)N(C1CCCC1)CC(F)(F)C(=O)N2C` [Compound 32, 4-((9-cyclopentyl-7,7-difluoro-5-methyl-6-oxo-6,7,8,9-tetrahydro-5H-pyrimido[4,5-b][1,4]diazepin-2-yl)amino)-N-(1-(3-(4-(4-(2,4-dioxotetrahydropyrimidin-1(2H)-yl)phenyl)piperazin-1-yl)propanoyl)piperidin-4-yl)-3-methoxybenzamide], at PLK1, the remaining activity at 0.3 µM is < 60%. The IC50 in the experiment on NCI-H526 cell line is < 0.03 µM; with MRC-5 cell line, > 10 µM.
The matching figures for `COc1cc(C(=O)NC2CCN(CCOCCOCCOCCOCCNc3ccc(C4CCC(=O)NC4=O)cc3)CC2)c(F)cc1Nc1ncc2c(n1)N(C1CCCC1)CC(F)(F)C(=O)N2C` (stereo not drawn) [Compound 1, 4-((9-cyclopentyl-7,7-difluoro-5-methyl-6-oxo-6,7,8,9-tetrahydro-5H-pyrimido[4,5-b][1,4]diazepin-2-yl)amino)-N-(1-(14-((4-(2,6-dioxopiperidin-3-yl)phenyl)amino)-3,6,9,12-tetraoxatetradecyl)piperidin-4-yl)-2-fluoro-5-methoxybenzamide]: < 60%, < 0.05 µM and 25.6 µM.
Turning to `COc1cc(C(=O)NC2CC3(CCN(CC4CCN(c5ccc(C6CCC(=O)NC6=O)cc5C)CC4)CC3)C2)ccc1Nc1ncc2c(n1)N(C1CCCC1)CC(F)(F)C(=O)N2C` (stereo not drawn) [Compound 25, 4-((9-cyclopentyl-7,7-difluoro-5-methyl-6-oxo-6,7,8,9-tetrahydro-5H-pyrimido[4,5-b][1,4]diazepin-2-yl)amino)-N-(7-((1-(4-(2,6-dioxopiperidin-3-yl)-2-methylphenyl)piperidin-4-yl)methyl)-7-azaspiro[3.5]nonan-2-yl)-3-methoxybenzamide], the remaining activity at 0.3 µM on PLK1 was < 30%. Besides, the IC50 is < 0.03 µM in the experiment with NCI-H526 cell line and > 10 µM with MRC-5 cell line.
As to `COc1cc(C(=O)NC2CCN(C(=O)CCN3CCN(c4cccc(C5CCC(=O)NC5=O)c4)CC3)CC2)ccc1Nc1ncc2c(n1)N(C1CCCC1)CC(F)(F)C(=O)N2C` (stereo not drawn) [Compound 6, 4-((9-cyclopentyl-7,7-difluoro-5-methyl-6-oxo-6,7,8,9-tetrahydro-5H-pyrimido[4,5-b][1,4]diazepin-2-yl)amino)-N-(1-(3-(4-(3-(2,6-dioxopiperidin-3-yl)phenyl)piperazin-1-yl)propanoyl)piperidin-4-yl)-3-methoxybenzamide], the remaining activity at 0.3 µM at PLK1 is < 60%. For the same compound, the IC50 with NCI-H526 cell line is < 0.03 µM; with MRC-5 cell line, > 10 µM.
In the case of `COc1cc(C(=O)NN2CCC(CCN3CCN(c4ccc(C5CCC(=O)NC5=O)cc4F)CC3)CC2)ccc1Nc1ncc2c(n1)N(C1CCCC1)CC(F)(F)C(=O)N2C` (stereo not drawn) [Compound 12, 4-((9-cyclopentyl-7,7-difluoro-5-methyl-6-oxo-6,7,8,9-tetrahydro-5H-pyrimido[4,5-b][1,4]diazepin-2-yl)amino)-N-(4-(2-(4-(4-(2,6-dioxopiperidin-3-yl)-2-fluorophenyl)piperazin-1-yl)ethyl)piperidin-1-yl)-3-methoxybenzamide], the remaining activity at 0.3 µM at PLK1 was < 30%. In addition, the IC50 in the experiment on NCI-H526 cell line is < 0.03 µM; with MRC-5 cell line, 20 µM.
As to `COc1cc(C(=O)NC2CC3(CCN(CC4CCN(c5ccc(C6CCC(=O)NC6=O)cc5F)CC4)CC3)C2)ccc1Nc1ncc2c(n1)N(C1CCCC1)CC(F)(F)C(=O)N2C` (stereo not drawn) [Compound 15, 4-((9-cyclopentyl-7,7-difluoro-5-methyl-6-oxo-6,7,8,9-tetrahydro-5H-pyrimido[4,5-b][1,4]diazepin-2-yl)amino)-N-(7-((1-(4-(2,6-dioxopiperidin-3-yl)-2-fluorophenyl)piperidin-4-yl)methyl)-7-azaspiro[3.5]nonan-2-yl)-3-methoxybenzamide], the remaining activity at 0.3 µM on PLK1 is < 30%. In addition, the IC50 with NCI-H526 cell line is < 0.03 µM; with MRC-5 cell line, > 10 µM.
The matching figures for `COc1cc(C(=O)NC2CC3(CCN(CCC4CCN(c5ccc(C6CCC(=O)NC6=O)cc5F)CC4)CC3)C2)ccc1Nc1ncc2c(n1)N(C1CCCC1)CC(F)(F)C(=O)N2C` (stereo not drawn) [Compound 45, 4-((9-cyclopentyl-7,7-difluoro-5-methyl-6-oxo-6,7,8,9-tetrahydro-5H-pyrimido[4,5-b][1,4]diazepin-2-yl)amino)-N-(7-(2-(1-(4-(2,6-dioxopiperidin-3-yl)-2-fluorophenyl)piperidin-4-yl)ethyl)-7-azaspiro[3.5]nonan-2-yl)-3-methoxybenzamide]: < 60%, < 0.03 µM and 8.68 µM.
Consider `COc1cc(C(=O)NC2CCN(C(=O)CCN3CCN(c4ccnc(C5CCC(=O)NC5=O)c4)CC3)CC2)ccc1Nc1ncc2c(n1)N(C1CCCC1)CC(F)(F)C(=O)N2C` (stereo not drawn) [Compound 37, 4-((9-cyclopentyl-7,7-difluoro-5-methyl-6-oxo-6,7,8,9-tetrahydro-5H-pyrimido[4,5-b][1,4]diazepin-2-yl)amino)-N-(1-(3-(4-(2-(2,6-dioxopiperidin-3-yl)pyridin-4-yl)piperazin-1-yl)propanoyl)piperidin-4-yl)-3-methoxybenzamide], for which the remaining activity at 0.3 µM at PLK1 was < 60%. Moreover, the IC50 in the experiment on NCI-H526 cell line is < 0.05 µM; with MRC-5 cell line, > 10 µM.
The matching figures for `COc1cc(C(=O)NC2CCN(C(=O)CCCOc3ccc(C4CCC(=O)NC4=O)cc3)CC2)c(F)cc1Nc1ncc2c(n1)N(C1CCCC1)CC(F)(F)C(=O)N2C` (stereo not drawn) [Compound 3, 4-((9-cyclopentyl-7,7-difluoro-5-methyl-6-oxo-6,7,8,9-tetrahydro-5H-pyrimido[4,5-b][1,4]diazepin-2-yl)amino)-N-(1-(4-(4-(2,6-dioxopiperidin-3-yl)phenoxy)butanoyl)piperidin-4-yl)-2-fluoro-5-methoxybenzamide]: < 60%, < 0.1 µM and > 10 µM.
The matching figures for `COc1cc(C(=O)NC2CC3(CCN(CC4CCN(c5ccc(N6CCC(=O)NC6=O)cc5)CC4)CC3)C2)ccc1Nc1ncc2c(n1)N(C1CCCC1)CC(F)(F)C(=O)N2C` [Compound 33, 4-((9-cyclopentyl-7,7-difluoro-5-methyl-6-oxo-6,7,8,9-tetrahydro-5H-pyrimido[4,5-b][1,4]diazepin-2-yl)amino)-N-(7-((1-(4-(2,4-dioxotetrahydropyrimidin-1(2H)-yl)phenyl)piperidin-4-yl)methyl)-7-azaspiro[3.5]nonan-2-yl)-3-methoxybenzamide]: < 70%, < 0.03 µM and > 10 µM.
In the same order, the values of `COc1cc(C(=O)NCC2CC23CCN(CC2CCN(c4ccc(C5CCC(=O)NC5=O)cc4F)CC2)CC3)ccc1Nc1ncc2c(n1)N(C1CCCC1)CC(F)(F)C(=O)N2C` (stereo not drawn) [Compound 24, 4-((9-cyclopentyl-7,7-difluoro-5-methyl-6-oxo-6,7,8,9-tetrahydro-5H-pyrimido[4,5-b][1,4]diazepin-2-yl)amino)-N-((6-((1-(4-(2,6-dioxopiperidin-3-yl)-2-fluorophenyl)piperidin-4-yl)methyl)-6-azaspiro[2.5]octan-1-yl)methyl)-3-methoxybenzamide] are < 30%, < 0.05 µM and > 10 µM.

In general, IC50 refers to the concentration at which inhibition is half-maximal.
